The inhibition is the change of the read-out against control, counted positive when it falls.

Consider 6 compounds from patent US20260297081A1, “COMPOUNDS AND METHODS OF TREATING CANCERS” (Cullgen Inc., priority 2023, published 2026).

This assay concerns the target CDK4 (Homo sapiens, UniProt P11802+Q16531). The experiment in a line: CDK4 percentage degradation in Calu-1 cells (Table 6). The format is cell-based. Details: Cells that express cyclin D1-3 and CDK4/6 proteins were treated with heterobifunctional compounds; endogenous in cells; host or cells: Calu-1. The settings on record: 16 hours; for inhibition at 0.04 µM: 40 nM; for inhibition at 0.2 µM: 200 nM. Summed up:
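Calu-1 cells exposed to heterobifunctional compounds at 40 nM or 200 nM for 16 h. Cyclin D1 and CDK4 levels measured by Western blot of RIPA lysates (BCA-normalised loading), bands quantified by densitometry and expressed as percentage degradation.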

Sequence of CDK4 (P11802 2-303 limits assumed): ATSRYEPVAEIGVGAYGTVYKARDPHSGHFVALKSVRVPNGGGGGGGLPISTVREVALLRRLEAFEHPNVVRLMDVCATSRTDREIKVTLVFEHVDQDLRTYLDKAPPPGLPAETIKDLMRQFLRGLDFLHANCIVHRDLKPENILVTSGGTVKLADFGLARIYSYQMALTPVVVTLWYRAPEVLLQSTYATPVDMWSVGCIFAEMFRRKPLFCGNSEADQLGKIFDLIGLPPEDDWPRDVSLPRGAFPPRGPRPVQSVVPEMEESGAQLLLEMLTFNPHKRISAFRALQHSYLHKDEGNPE
Sequence of CDK4 (P24385 whole entry partner): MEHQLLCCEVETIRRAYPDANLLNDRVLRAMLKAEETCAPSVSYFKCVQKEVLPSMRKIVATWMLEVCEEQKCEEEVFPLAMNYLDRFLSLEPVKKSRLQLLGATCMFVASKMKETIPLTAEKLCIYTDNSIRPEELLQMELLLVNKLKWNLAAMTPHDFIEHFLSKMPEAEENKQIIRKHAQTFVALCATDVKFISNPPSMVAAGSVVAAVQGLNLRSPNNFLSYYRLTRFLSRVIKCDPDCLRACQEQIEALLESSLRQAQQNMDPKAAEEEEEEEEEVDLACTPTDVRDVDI
Sequence of CDK4 (Q16531 2-1140 limits assumed): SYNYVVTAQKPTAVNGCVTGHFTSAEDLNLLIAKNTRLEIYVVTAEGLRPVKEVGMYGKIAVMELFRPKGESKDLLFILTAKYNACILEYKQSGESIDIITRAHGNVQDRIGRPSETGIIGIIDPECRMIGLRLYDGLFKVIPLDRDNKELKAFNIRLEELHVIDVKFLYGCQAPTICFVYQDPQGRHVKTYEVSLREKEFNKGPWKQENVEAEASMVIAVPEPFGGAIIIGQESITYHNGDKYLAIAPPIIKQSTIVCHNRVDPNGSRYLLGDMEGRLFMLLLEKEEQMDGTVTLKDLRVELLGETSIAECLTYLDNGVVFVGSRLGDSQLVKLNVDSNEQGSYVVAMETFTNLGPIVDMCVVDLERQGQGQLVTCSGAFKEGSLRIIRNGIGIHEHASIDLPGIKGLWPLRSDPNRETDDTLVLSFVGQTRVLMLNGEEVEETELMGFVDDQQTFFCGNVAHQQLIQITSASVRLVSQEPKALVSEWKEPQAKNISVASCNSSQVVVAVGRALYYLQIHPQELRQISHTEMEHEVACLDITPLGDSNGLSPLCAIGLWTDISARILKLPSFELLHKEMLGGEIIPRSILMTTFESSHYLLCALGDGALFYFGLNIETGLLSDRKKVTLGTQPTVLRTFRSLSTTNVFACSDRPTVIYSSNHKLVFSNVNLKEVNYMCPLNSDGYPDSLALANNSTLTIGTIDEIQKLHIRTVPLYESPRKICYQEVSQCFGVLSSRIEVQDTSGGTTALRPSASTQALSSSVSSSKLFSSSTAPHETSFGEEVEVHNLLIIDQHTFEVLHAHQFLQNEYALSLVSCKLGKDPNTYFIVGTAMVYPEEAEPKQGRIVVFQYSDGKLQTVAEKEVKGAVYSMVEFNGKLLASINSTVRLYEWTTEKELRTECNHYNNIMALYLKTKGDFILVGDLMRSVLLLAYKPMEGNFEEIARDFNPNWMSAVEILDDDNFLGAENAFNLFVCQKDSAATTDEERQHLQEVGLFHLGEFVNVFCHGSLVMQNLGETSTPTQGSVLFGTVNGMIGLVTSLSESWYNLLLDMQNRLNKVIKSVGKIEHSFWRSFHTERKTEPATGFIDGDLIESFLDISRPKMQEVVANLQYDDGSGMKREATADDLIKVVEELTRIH

The compound `CNc1ccc(C(=O)Nc2ccc(N(C)C)nn2)c(NC2CC(NC(=O)C(C)(C)N3CCN(c4ccc(Nc5ncc6c(C)c(C(C)=O)c(=O)n(C7CCCC7)c6n5)nc4)CC3)C2)n1` (stereo not drawn) [CPD-243, 2-((3-(2-(4-(6-((6-acetyl-8-cyclopentyl-5-methyl-7-oxo-7,8-dihydropyrido[2,3-d]pyrimidin-2-yl)amino)pyridin-3-yl)piperazin-1-yl)-2-methylpropanamido)cyclobutyl)amino)-N-(6-(dimethylamino)pyridazin-3-yl)-6-(methylamino)nicotinamide] showed an inhibition at 0.04 µM of 50 to 80% and an inhibition at 0.2 µM of 50 to 80%.
For the compound `CNc1ccc(C(=O)NC2CCC(N(C)C)CC2)c(NCCCCCNC(=O)CN2CCN(c3ccc(Nc4ncc5c(C)c(C(C)=O)c(=O)n(C6CCCC6)c5n4)nc3)CC2)n1` (stereo not drawn) [CPD-48, 2-((5-(2-(4-(6-((6-Acetyl-8-cyclopentyl-5-methyl-7-oxo-7,8-dihydropyrido[2,3-d]pyrimidin-2-yl)amino)pyridin-3-yl)piperazin-1-yl)acetamido)pentyl)amino)-N-(4-(dimethylamino)cyclohexyl)-6-(methylamino)nicotinamide], the inhibition at 0.04 µM is under 30% and the inhibition at 0.2 µM was under 30%.
The compound `CC(=O)c1c(C)c2cnc(Nc3ccc(N4CCN(CC(=O)NC5CC6(C5)CC(Nc5nc(C)ccc5C(=O)Nc5cn(C)c(C7CC7)n5)C6)CC4)cn3)nc2n(C2CCCC2)c1=O` (stereo not drawn) [CPD-207, 2-((6-(2-(4-(6-((6-acetyl-8-cyclopentyl-5-methyl-7-oxo-7,8-dihydropyrido[2,3-d]pyrimidin-2-yl)amino)pyridin-3-yl)piperazin-1-yl)acetamido)spiro[3.3]heptan-2-yl)amino)-N-(2-cyclopropyl-1-methyl-1H-imidazol-4-yl)-6-methylnicotinamide] came in with an inhibition at 0.04 µM of 30 to 50% and an inhibition at 0.2 µM of 50 to 80%.
The compound `CNc1ccc(C(=O)Nc2ccc(N(C)C)nn2)c(N[C@H]2CC[C@H](CNC(=O)CN3CCN(c4ccc(Nc5ncc6c(C)c(C(C)=O)c(=O)n(C7CCCC7)c6n5)nc4)CC3)CC2)n1` [CPD-43, 2-((trans-4-((2-(4-(6-((6-Acetyl-8-cyclopentyl-5-methyl-7-oxo-7,8-dihydropyrido[2,3-d]pyrimidin-2-yl)amino)pyridin-3-yl)piperazin-1-yl)acetamido)methyl)cyclohexyl)amino)-N-(6-(dimethylamino)pyridazin-3-yl)-6-(methylamino)nicotinamide] displayed an inhibition at 0.04 µM of under 30% and an inhibition at 0.2 µM of 50 to 80%.
The compound `CNc1ccc(C(=O)Nc2cccc(C#N)n2)c(NC2CC3(CC(NC(=O)CN4CCN(c5ccc(Nc6ncc7c(C)c(C(C)=O)c(=O)n(C8CCCC8)c7n6)nc5)CC4)C3)C2)n1` (stereo not drawn) [CPD-90, 2-((6-(2-(4-(6-((6-Acetyl-8-cyclopentyl-5-methyl-7-oxo-7,8-dihydropyrido[2,3-d]pyrimidin-2-yl)amino)pyridin-3-yl)piperazin-1-yl)acetamido)spiro[3.3]heptan-2-yl)amino)-N-(6-cyanopyridin-2-yl)-6-(methylanino)nicotinamide] had an inhibition at 0.04 µM of under 30% and an inhibition at 0.2 µM of 50 to 80%.
For `CNc1ccc(C(=O)Nc2ccc(N(C)C)nn2)c(NC2CC(CNC(=O)C3(CN4CCN(c5ccc(Nc6ncc7c(C)c(C(C)=O)c(=O)n(C8CCCC8)c7n6)nc5)CC4)CC3)C2)n1` (stereo not drawn) [CPD-172, 2-((3-((1-((4-(6-((6-acetyl-8-cyclopentyl-5-methyl-7-oxo-7,8-dihydropyrido[2,3-d]pyrimidin-2-yl)amino)pyridin-3-yl)piperazin-1-yl)methyl)cyclopropane-1-carboxamido)methyl)cyclobutyl)amino)-N-(6-(dimethylamino)pyridazin-3-yl)-6-(methylamino)nicotinamide] the same measures were 50 to 80% and 50 to 80%.
